Measurements published in patent publication US9902759B2, “BH3 peptides and methods of use thereof” (Dana-Farber Cancer Institute, Inc., priority 2002, dated 2018).
Each block holds one molecule with its values, some of them ahead of it. Ends that are not written are not given here.

What was measured:
[1] = test system: BCL-2 overexpressing mitochondria; assay: Cytochrome c release from BCL-2 overexpressing FL5.12 mitochondria; assay type: biochemical; settings: for capacity to overcome BCL-2 protection: with subliminal myrBID (30 nM); for cytochrome c release from mitochondria with overexpressed BCL-2, agent alone: 10 μM BIDBH3, 1 μM BIMBH3, 30 nM myrBID
Procedure: (§1) Mouse liver mitochondria were isolated from age-matched wt or Bak −/− mice. Livers were diced, subjected to Dounce rotary Teflon pestle disruption, then homogenized using a Kinematica Polytron homognizer. Following suspension in isolation buffer (250 mM sucrose, 10 mM Tris-HCl pH 7.4, 0.1 mM EGTA), mitochondria were isolated by differential centrifugation steps, followed by two washes in isolation buffer. Mitochondria from FL5.12 cells were isolated by cell disruption followed by differential centrifugation and washing as above. Cell disruption was performed either by a Kinematika Polytron homogenizer or by a combination of Dounce homogenization followed by 6-10 expulsions through a 27 gauge needle.
(§2) Mitochondria at a protein concentration of 0.5 mg/ml were treated at room temperature in experimental buffer (125 mM KCl, 10 mM Tris-MOPS pH 7.4, 5 mM glutamate, 2.5 mM malate, 1 mM KPO4, 10 µM EGTA-Tris pH 7.4). Percent release was quantitated using a colorimetric ELISA (MCTC0, R&D Systems). In all experiments, treatments with DMSO were used as a control for solvent activity.

[2] = molecular target: T1, GST-BCL-2 (Homo sapiens, UniProt P10415); assay: Fluorescence polarization binding of fluoresceinated BH3 peptides to GST-BCL-2; settings: for Kd: 25 nM fluoresceinated peptide, GST-BCL-2 titration, 37° C., read-out: Kd (nM), BCL-2 Binding
T1 construct: a GST-BCL-2 fusion protein lacking the C-terminal transmembrane domain was utilized; made in house; host or cells: E. coli BL21 DE3
T1 sequence (P10415 1-218 limits assumed): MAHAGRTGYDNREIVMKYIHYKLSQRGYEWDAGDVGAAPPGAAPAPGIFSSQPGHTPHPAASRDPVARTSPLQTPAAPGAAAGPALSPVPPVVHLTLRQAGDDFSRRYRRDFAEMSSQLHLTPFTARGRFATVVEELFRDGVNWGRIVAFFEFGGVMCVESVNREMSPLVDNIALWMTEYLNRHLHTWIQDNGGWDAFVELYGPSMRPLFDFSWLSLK
From the text: (§3) To determine Kd for peptide binding to BCL-2, a GST-BCL-2 fusion protein lacking the C-terminal transmembrane domain was utilized. Peptides were synthesized with a fluorescein amino-terminus using an AHA linker. […] An increase in fluorescence polarization measured on a Perkin-Elmer LS 50B luminescence spectrophotometer was quantitated to calculate binding. A non-linear fit to a sigmoidal dose-response curve utilized the program Origin 6.0 to determine Kd. […] Data were fitted to a sigmoidal curve as above, and IC50 determined.
(§4) GST-BCL-2δC21 fusion proteins were induced in BL21 DE3 by 0.1 mM IPTG. The bacterial pellets were resuspended in lysis buffer (1 mg/ml lysozyme/1% Triton X-100/0.1 mg/ml PMSF/2 μg/ml aprotinin/2 μg/ml leupeptine/1 μg/ml pepstatin A in PBS) and sonicated. After centrifugation at 20,000×g for 20 min, the supernatant was applied to glutathione-agarose beads (Sigma). The beads were washed with PBS and treated with 50 mM glutathione/50 mM TrisHCl, pH8.0 to elute protein. Eluate was dialyzed against binding buffer and concentrated using Amicon centrifugal concentrating devices.

[3] = molecular target: T2, BAK (Mus musculus, UniProt O08734); assay: BAK oligomerization, BMH cross-linking and immunoblot; assay type: biochemical; settings: 100 μM peptide, cross-linker BMH
T2 construct: capable of inducing an allosteric change in mitochondrial-resident BAK or BAX; from tissue
T2 sequence (O08734 1-209): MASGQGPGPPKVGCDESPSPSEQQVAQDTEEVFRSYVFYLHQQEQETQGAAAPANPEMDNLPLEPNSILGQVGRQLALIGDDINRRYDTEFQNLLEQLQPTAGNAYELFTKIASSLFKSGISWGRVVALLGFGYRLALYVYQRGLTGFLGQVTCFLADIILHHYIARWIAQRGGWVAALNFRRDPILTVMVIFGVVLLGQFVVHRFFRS
Procedure: (§5) 1,6-Bismaleimidohexane was obtained from Pierce (#22330). A 10 mM stock solution in DMSO was added to treated mitochondrial suspensions at a 1:11 dilution. Cross-linking took place for 30 minutes at room temperature, followed by centrifugation to pellet mitochondria. Pellets were dissolved in NuPAGE loading buffer (Invitrogen).
(§6) Antibodies used for immunoblot analysis included anti-cytochrome c (75981A, Pharmingen), anti-BAK (Upstate Biotechnology), and anti-BAX (N-20, Santa Cruz). Antibody detection was accomplished using enhanced chemiluminescence (Western Lightning, Perkin-Elmer).

[4] = test system: mitochondria; assay: Cytochrome c release from isolated mitochondria (ELISA); assay type: biochemical, mouse; settings: for cytochrome c release by peptide or protein alone: BIDBH3 at 10 μM, other concentrations not stated
Procedure: as §1, §2

[5] = molecular target: T3, BAX (Mus musculus, UniProt Q07813); assay: BAX oligomerization in mitochondria from FL5.12 cells, BMH cross-linking; assay type: biochemical; settings: 100 μM peptide
T3 construct: mitochondria isolated from cultured FL5.12 cells, which contain both BAX and BAK; endogenous in cells; host or cells: mitochondria isolated from FL5.12 cells
T3 sequence (Q07813 whole entry): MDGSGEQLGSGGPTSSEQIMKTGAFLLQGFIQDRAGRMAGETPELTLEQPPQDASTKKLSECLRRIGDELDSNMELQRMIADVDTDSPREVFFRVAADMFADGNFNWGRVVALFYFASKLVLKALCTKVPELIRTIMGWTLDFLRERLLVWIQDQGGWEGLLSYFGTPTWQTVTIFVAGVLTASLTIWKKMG
Procedure: as §5, §6

[6] = Circular dichroism, α-helical content; assay type: physicochemical; settings: CD, 50 mM potassium phosphate pH 7, 20° C.
Procedure: Circular dichroism (CD) spectra were obtained on a Jasco J-710 spectropolarimeter at 20° C. using the following standard measurement parameters: wavelength, 190-260 nm; step resolution, 0.5 nm; speed, 20 nm/sec; accumulations, 10; response, 1 sec; band width, 1 nm; path length, 0.1 cm. Stock solutions of peptide were dissolved in deionized water and concentrations determined by amino acid analysis. Samples were then diluted in 50 mM potassium phosphate pH 7 to a calculated final concentration of 50 μM. The CD spectrum of each sample was measured in triplicate and a background spectrum of diluent alone was subtracted. For comparison, the subtracted CD spectra were normalized to 35 μM based on repeat peptide concentration determination by amino acid analysis of the diluted peptide solutions. The α-helical content of each peptide was calculated by dividing the mean residue ellipticity [q]222obs by the reported [q]222obs for a model helical decapeptide (Yang et al., 1986).

[7] = molecular target: T1, GST-BCL-2; assay: BH3 peptide displacement from GST-BCL-2 by fluorescence polarization; assay type: binding; settings: for IC50: read-out: IC50 (nM), BID Displacement
From the text: as §3, §4

affinity for BCL-2 relative to BIDBH3 peptide [2]: approximately 5 fold | BAK oligomerization [3]: unable to induce BAK oligomerization | oligomerization of BAX [5]: not | % Helicity (222 nm) [6]: 23.9%
Molecule: CSCC[C@H](NC(=O)[C@H](CCCNC(=N)N)NC(=O)[C@H](CCCNC(=N)N)NC(=O)[C@H](CC(C)C)NC(=O)[C@H](CCC(=O)O)NC(=O)[C@H](CCCNC(=N)N)NC(=O)CNC(=O)[C@H](Cc1ccc(O)cc1)NC(=O)[C@H](CCCNC(=N)N)NC(=O)[C@H](CCC(N)=O)NC(=O)[C@H](C)NC(=O)[C@H](C)NC(=O)[C@H](Cc1c[nH]c2ccccc12)NC(=O)[C@H](CC(C)C)NC(=O)[C@@H](N)CC(N)=O)C(=O)N[C@@H](CO)C(=O)N[C@@H](CC(=O)O)C(=O)N[C@@H](CCC(=O)O)C(=O)N[C@@H](Cc1ccccc1)C(=O)N[C@H](C(=O)N[C@@H](CC(=O)O)C(=O)N[C@@H](CO)C(=O)N[C@@H](Cc1ccccc1)C(=O)N[C@@H](CCCCN)C(=O)N[C@@H](CCCCN)C(=O)O)C(C)C [BADBH3]
restoration of cytochrome c release to BIDBH3 and BIMBH3 ([1]; 100 μM BADBH3): to levels observed for wt mitochondria | restoration of sensitivity to myrBID ([1]; 200 μM BADBH3): markedly restores their sensitivity to even 1 nM myrBID | lowest concentration with measurable activity in inhibiting BCL-2 and enabling cytochrome c release by myrBID ([1]; FL5.12-BCL-2 mitochondria): 1 µM | capacity to overcome BCL-2 protection [1]: most prominently demonstrates the capacity to overcome BCL-2 protection | cytochrome c release by peptide or protein alone [4]: inactive in this assay | cytochrome c release by peptide alone ([4]; even at 100 μM): cannot activate BAK or release cytochrome c | displacement of BIDBH3 from BCL-2 [7]: can efficiently displace pre-bound BIDBH3 peptide from BCL-2

BAK oligomerization [3]: induces BAK oligomerization | oligomerization of BAX [5]: could also induce oligomerization of BAX | % Helicity (222 nm) [6]: 19.5%
Molecule: CC[C@H](C)[C@H](NC(=O)[C@H](CC(N)=O)NC(=O)[C@H](CCCNC(=N)N)NC(=O)[C@@H](NC(=O)[C@@H](NC(=O)[C@H](CC(=O)O)NC(=O)[C@@H](N)CCC(=O)O)[C@@H](C)CC)[C@@H](C)CC)C(=O)N[C@@H](C)C(=O)N[C@@H](CCCNC(=N)N)C(=O)N[C@@H](Cc1c[nH]cn1)C(=O)N[C@@H](CC(C)C)C(=O)N[C@@H](C)C(=O)N[C@@H](CCC(N)=O)C(=O)N[C@H](C(=O)NCC(=O)N[C@@H](CC(=O)O)C(=O)N[C@@H](CO)C(=O)N[C@@H](CCSC)C(=O)N[C@@H](CC(=O)O)C(=O)N[C@@H](CCCNC(=N)N)C(=O)O)C(C)C [BIDBH3]
cytochrome c release from mitochondria with overexpressed BCL-2, agent alone [1]: failing to release cytochrome c | concentration required for near total release of cytochrome c [4]: 10 µM | cytochrome c release, Bak +/+ vs. −/− mitochondria ([4]; 100 μM peptide, liver mitochondria): BAK is required for the release of cytochrome c | cytochrome c release by peptide or protein alone [4]: capable of initiating cytochrome c release | displacement of BADBH3 from BCL-2 [7]: does not effectively displace BADBH3 from BCL-2

Kd [2]: 485 nM | % Helicity (222 nm) [6]: 8.5% | IC50 [7]: 4920 nM
Molecule: CC[C@H](C)[C@H](NC(=O)[C@H](CS)NC(=O)[C@H](C)NC(=O)[C@H](CC(C)C)NC(=O)[C@H](CCCNC(=N)N)NC(=O)[C@H](CC(C)C)NC(=O)[C@H](C)NC(=O)[C@H](CC(C)C)NC(=O)[C@H](C)NC(=O)[C@H](CC(=O)O)NC(=O)[C@H](CO)NC(=O)CNC(=O)[C@H](CCC(=O)O)NC(=O)[C@@H](N)CCSC)C(=O)NCC(=O)N[C@@H](CC(=O)O)C(=O)N[C@@H](CCC(=O)O)C(=O)N[C@@H](CCSC)C(=O)N[C@@H](CC(=O)O)C(=O)N[C@H](C(=O)O)C(C)C [BIKBH3]
restoration of cytochrome c release by myrBID ([1]; 100 μM BIKBH3): restore near-total cytochrome c release | capacity to overcome BCL-2 protection [1]: significant, but lesser, potency | displacement of BIDBH3 from BCL-2 [7]: demonstrate the ability to displace BIDBH3

binding to BCL-2 [2]: did not bind detectably | % Helicity (222 nm) [6]: 5.1%
Molecule: CC[C@H](C)[C@H](NC(=O)[C@H](CCCCN)NC(=O)[C@H](CCCNC(=N)N)NC(=O)[C@H](CC(C)C)NC(=O)[C@H](CCC(N)=O)NC(=O)[C@H](C)NC(=O)[C@H](C)NC(=O)[C@H](Cc1ccccc1)NC(=O)[C@H](CCC(=O)O)NC(=O)[C@@H]1CCCN1C(=O)[C@@H]1CCCN1C(=O)[C@H](CC(C)C)NC(=O)[C@H](CCC(=O)O)NC(=O)[C@H](C)N)C(=O)NCC(=O)N[C@@H](CC(=O)O)C(=O)N[C@@H](CCCCN)C(=O)N[C@H](C(=O)N[C@@H](Cc1ccc(O)cc1)C(=O)N[C@@H](CS)C(=O)O)C(C)C [NOXAABH3]
displacement of BIDBH3 from BCL-2 [7]: did not bind detectably to BCL-2 or displace BIDBH3 from BCL-2

Further lines, the molecule ahead of its results:

Molecule: CC[C@H](C)[C@H](NC(=O)[C@H](CCCNC(=N)N)NC(=O)[C@H](CCCNC(=N)N)NC(=O)[C@H](CC(C)C)NC(=O)[C@H](CCC(N)=O)NC(=O)[C@H](C)NC(=O)[C@H](CS)NC(=O)[C@H](CCC(=O)O)NC(=O)[C@H](CC(=O)O)NC(=O)[C@H](CCCCN)NC(=O)[C@H](CC(C)C)NC(=O)[C@H](CC(=O)O)NC(=O)[C@H](C)NC(=O)[C@@H]1CCCN1)C(=O)NCC(=O)N[C@@H](CC(=O)O)C(=O)N[C@@H](CCCCN)C(=O)N[C@H](C(=O)N[C@@H](CC(N)=O)C(=O)N[C@@H](CC(C)C)C(=O)O)C(C)C [NOXABBH3]
binding to BCL-2 [2]: did not bind detectably | % Helicity (222 nm) [6]: 11.6% | displacement of BIDBH3 from BCL-2 [7]: did not bind detectably to BCL-2 or displace BIDBH3 from BCL-2

Molecule: VIPMAAVKQALREAGDEFEL [BCLXBH3]
Kd [2]: > 1000 nM | IC50 [7]: > 30000 nM

B1: myrBID: recombinant p7/myrp15, myristoylated BID complex (protein, UniProt P55957 1-195, looked up)
BH3-interacting domain death …: MDCEVNNGSSLRDECITNLLVFGFLQSCSDNSFRRELDALGHELPVLAPQWEGYDELQTDGNRSSHSRLGRIEADSESQEDIIRNIARHLAQVGDSMDRSIPPGLVNGLALQLRNTSRSEEDRNRDLATALEQLLQAYPRDMEKEKTMLVLALLLAKKVASHTPSLLRDVFHTTVNFINQNLRTYVRSLARNGMD
modifications: myristoylated; p7/p15 cleaved complex
cytochrome c release from mitochondria with overexpressed BCL-2, agent alone [1]: failing to release cytochrome c | concentration required for near total release of cytochrome c [4]: 0.01 µM | cytochrome c release by peptide or protein alone [4]: capable of initiating cytochrome c release
